Drawing on patent publication US9216968B2, “Heterocyclic derivative and pharmaceutical drug” (NIPPON SHINYAKU CO., LTD., priority 2011, dated 2015), this text covers IC50 for 23 compounds.

One test has as its target human mPGES-1 (Homo sapiens (Human), UniProt O14684). In words: mPGES-1 inhibiting activity (microsome fractions, PGE2 by HTRF). The note with it: microsomes from CHO-K1 cells transfected with human mPGES-1; PGH2 1 μM, 4° C., 60 seconds; read-out: mPGES-1 Inhibition IC50. The class given is biochemical. A digest of the protocol:
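PGE2 formation read by HTRF after 60 s at 4 °C with 1 μM PGH2 substrate, following 20 min compound preincubation (1% DMSO) with human mPGES-1 microsomes from transfected CHO-K1 cells. Buffer: potassium phosphate, reduced glutathione, pH 7.4; IC50 from activity relative to enzyme-free blank.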

The next test relates to A549 cells. Description: Inhibition of PGE2 production in A549 cell (IL-1β stimulated). Type of test: cell-based, human. The following applies: Homo sapiens, A549, 24 h, IL-1β 5 ng/well, PGE2 in culture medium. A digest of the protocol:
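A549 cells preincubated 60 min with compound in RPMI/3% FBS (final DMSO 0.10), then stimulated with IL-1β (5 ng/well) for 24 h at 37 °C. PGE2 measured by HTRF and PGF2α by EIA in medium; IC50 from inhibition relative to stimulated minus unstimulated production.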

Counter-ions that a name gives are not always drawn.

Broadly, the IC50 is the concentration that gives 50% inhibition.

Chain of human mPGES-1 (O14684 whole entry): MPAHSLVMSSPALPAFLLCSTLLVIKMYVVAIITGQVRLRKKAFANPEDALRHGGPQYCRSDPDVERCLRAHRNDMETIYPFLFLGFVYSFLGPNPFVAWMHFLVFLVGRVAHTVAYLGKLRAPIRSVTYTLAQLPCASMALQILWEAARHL

With `O=C(Nc1cc(C(=O)NCc2ccccc2C(F)(F)F)c2nc([C@H]3CCCO3)[nH]c2c1)c1ccccc1C(F)(F)F` [Example 65, 2-[(2R)-Tetrahydrofuran-2-yl]-N-[2-(trifluoromethyl)benzyl]-6-({[2-(trifluoromethyl)phenyl]carbonyl}amino)-1H-benzimidazole-4-carboxamide], the IC50 at human mPGES-1 turned out to be 9.6 nM; in the test with A549 cells, 72.2 nM.
Turning to `Cc1c(Cl)cccc1NC(=O)c1cc(NC(=O)c2cc(Cl)ccc2Cl)cc2[nH]c(N(C)C)nc12` [Example 185, N-(3-Chloro-2-methylphenyl)-6-{[(2,5-dichlorophenyl)carbonyl]amino}-2-(dimethylamino)-1H-benzimidazole-4-carboxamide hydrochloride], the IC50 on human mPGES-1 was 4.5 nM; in the test with A549 cells, 5.6 nM.
Turning to `Cc1c(Cl)cccc1NC(=O)c1cc(NC(=O)c2ccccc2C(F)(F)F)cc2[nH]c(N[C@H](CO)C(C)C)nc12` [Example 170, N-(3-Chloro-2-methylphenyl)-2-{[(2S)-1-hydroxy-3-methylbutan-2-yl]amino}-6-({[2-(trifluoromethyl)phenyl]carbonyl}amino-1H-benzimidazole-4-carboxamide hydrochloride], the IC50 is 3.2 nM at human mPGES-1 and 17.8 nM in the test with A549 cells.
For the compound `CCCNC(=O)c1cc(NC(=O)c2ccccc2C(F)(F)F)cc2[nH]c(COC)nc12` [Example 215, 2-(Methoxymethyl)-N-propyl-6-({[2-(trifluoromethyl)phenyl]carbonyl}amino)-1H-benzimidazole-4-carboxamide hydrochloride], the half-inhibitory concentration (IC50) at human mPGES-1 is 140 nM; with A549 cells, 772 nM.
In the case of `CSc1nc2c(C(=O)Nc3cccc(Cl)c3C)cc(NC(=O)c3ccccc3C(F)(F)F)cc2[nH]1` [Example 179, N-(3-Chloro-2-methylphenyl)-2-(methylsulfanyl)-6-({[2-(trifluoromethyl)phenyl]carbonyl}amino)-1H-benzimidazole-4-carboxamide], the results for the IC50 on human mPGES-1 and in the test on A549 cells were 3.6 nM and 20.2 nM, respectively.
Take `COCc1nc2c(C(=O)NCc3ncccc3C(F)(F)F)cc(NC(=O)c3ccccc3C(F)(F)F)cc2[nH]1` [Example 42, 2-(Methoxymethyl)-6-({[2-(trifluoromethyl)phenyl]carbonyl}amino)-N-{[3-(trifluoromethyl)pyridin-2-yl]methyl}-1H-benzimidazole-4-carboxamide dihydrochloride]: the values for the IC50 on human mPGES-1 and in the test on A549 cells were 28.5 nM and 1860 nM, respectively.
As to `COCCCc1ccc(Cl)c(C(=O)Nc2cc(C(=O)Nc3cccc(Cl)c3C)c3nc(COC)[nH]c3c2)c1` [Example 116, 6-({[2-Chloro-5-(3-methoxypropyl)phenyl]carbonyl}amino)-N-(3-chloro-2-methylphenyl)-2-(methoxymethyl)-1H-benzimidazole-4-carboxamide hydrochloride], the IC50 at human mPGES-1 amounted to 9.7 nM; in the test on A549 cells, 252 nM.
Turning to `Cc1c(Cl)cccc1NC(=O)c1cc(NC(=O)c2ccccc2C(F)(F)F)cc2[nH]c(NCCO)nc12` [Example 137, N-(3-Chloro-2-methylphenyl)-2-[(2-hydroxyethyl)amino]-6-({[2-(trifluoromethyl)phenyl]carbonyl}amino)-1H-benzimidazole-4-carboxamide hydrochloride], the IC50 at human mPGES-1 stood at 3.3 nM; in the test on A549 cells, 1110 nM.
For `CC(C)(C)c1nc2c(C(=O)NCc3ncccc3C(F)(F)F)cc(NC(=O)c3ccccc3C(F)(F)F)cc2[nH]1` [Example 77, 2-tert-Butyl-6-({[2-(trifluoromethyl)phenyl]carbonyl}amino)-N-{[3-(trifluoromethyl)pyridin-2-yl]methyl}-1H-benzimidazole-4-carboxamide dihydrochloride] the same measures were 1.7 nM and 32.9 nM.
Taken in the same sequence, the figures for `CCOCCc1nc2c(C(=O)Nc3cccc(Cl)c3C)cc(NC(=O)c3ccccc3C(F)(F)F)cc2[nH]1` [Example 78, N-(3-Chloro-2-methylphenyl)-2-(2-ethoxyethyl)-6-({[2-(trifluoromethyl)phenyl]carbonyl}amino)-1H-benzimidazole-4-carboxamide hydrochloride] were 96.8 nM and 177 nM.
As for `COCc1nc2c(C(=O)Nc3cccc(Cl)c3C)cc(NC(=O)c3cc(CCC4CC4)ccc3Cl)cc2[nH]1` [Example 122, 6-({[2-Chloro-5-(2-cyclopropylethyl)phenyl]carbonyl}amino)-N-(3-chloro-2-methylphenyl)-2-(methoxymethyl)-1H-benzimidazole-4-carboxamide], the results for the IC50 on human mPGES-1 and with A549 cells were 9.7 nM and over 1000 nM, respectively.
For `Cc1c(Cl)cccc1NC(=O)c1cc(NC(=O)c2ccccc2C(F)(F)F)cc2c1nc(NCC(C)(C)CO)n2C` [Example 162, N-(3-Chloro-2-methylphenyl)-2-[(3-hydroxy-2,2-dimethylpropyl)amino]-1-methyl-6-({[2-(trifluoromethyl)phenyl]carbonyl}amino)-1H-benzimidazole-4-carboxamide hydrochloride] the same measures were 23.8 nM and 52.2 nM.
On to `Cc1c(Cl)cccc1NC(=O)c1cc(NC(=O)c2ccccc2C(F)(F)F)cc2[nH]c(NCCOC(C)C)nc12` [Example 175, N-(3-Chloro-2-methylphenyl)-2-{[2-(propan-2-yloxy)ethyl]amino}-6-({[2-(trifluoromethyl)phenyl]carbonyl}amino)-1H-benzimidazole-4-carboxamide hydrochloride], for which the IC50 on human mPGES-1 is 3.6 nM; in the test on A549 cells it was 144 nM.
For the compound `COCc1nc2c(C(=O)Nc3cccc(Cl)c3C)cc(NC(=O)c3cc(Br)ccc3Cl)cc2[nH]1` [Example 106, 6-{[(5-Bromo-2-chlorophenyl)carbonyl]amino}-N-(3-chloro-2-methylphenyl)-2-(methoxymethyl)-1H-benzimidazole-4-carboxamide hydrochloride], the results for the 50% inhibitory concentration (IC50) at human mPGES-1 and with A549 cells were 4.5 nM and 63.8 nM, respectively.
With `COCc1nc2c(C(=O)Nc3cccc4c3CCCC4)cc(NC(=O)c3ccccc3C(F)(F)F)cc2[nH]1` [Example 34, 2-(Methoxymethyl)-N-(5,6,7,8-tetrahydronaphthalen-1-yl)-6-({[2-(trifluoromethyl)phenyl]carbonyl}amino)-1H-benzimidazole-4-carboxamide hydrochloride], the IC50 turned out to be 4.9 nM on human mPGES-1 and 27.6 nM in the test on A549 cells.
Turning to `COCc1nc2c(C(=O)NCc3ccc(C)cc3)cc(NC(=O)c3ccccc3C(F)(F)F)cc2[nH]1` [Example 25, 2-(Methoxymethyl)-N-(4-methylbenzyl)-6-({[2-(trifluoromethyl)phenyl]carbonyl}amino)-1H-benzimidazole-4-carboxamide hydrochloride], the half-inhibitory concentration (IC50) on human mPGES-1 was 89 nM; in the test with A549 cells it was 850 nM.
Regarding `COCc1nc2c(C(=O)Nc3ccc(OC)cc3)cc(NC(=O)c3ccccc3C(F)(F)F)cc2[nH]1` [Example 37, 2-(Methoxymethyl)-N-(4-methoxyphenyl)-6-({[2-(trifluoromethyl)phenyl]carbonyl}amino)-1H-benzimidazole-4-carboxamide], the values for the IC50 at human mPGES-1 and in the test on A549 cells were 23.3 nM and 265 nM, respectively.
Turning to `Cc1c(Cl)cccc1NC(=O)c1cc(NC(=O)c2ccccc2C(F)(F)F)cc2[nH]c(N3CC[C@H](N(C)C)C3)nc12` [Example 149, N-(3-Chloro-2-methylphenyl)-2-[(3S)-3-(dimethylamino)pyrrolidin-1-yl]-6-({[2-(trifluoromethyl)phenyl]carbonyl}amino)-1H-benzimidazole-4-carboxamide dihydrochloride], the IC50 worked out at 1 nM on human mPGES-1 and 43.3 nM in the test with A549 cells.
Turning to `Cc1c(Cl)cccc1NC(=O)c1cc(NC(=O)c2cc(Cl)ccc2Cl)cc2[nH]c(C(C)(C)C)nc12` [Example 87, 2-tert-Butyl-N-(3-chloro-2-methylphenyl)-6-{[(2,5-dichlorophenyl)carbonyl]amino}-1H-benzimidazole-4-carboxamide hydrochloride], the IC50 on human mPGES-1 was determined as 5.7 nM; in the test with A549 cells it was 6.9 nM.
With `COCc1nc2c(C(=O)Nc3c(F)cccc3F)cc(NC(=O)c3ccccc3C(F)(F)F)cc2[nH]1` [Example 40, N-(2,6-Difluorophenyl)-2-(methoxymethyl)-6-({[2-(trifluoromethyl)phenyl]carbonyl}amino)-1H-benzimidazole-4-carboxamide], the IC50 was 194 nM on human mPGES-1 and 300 nM in the test with A549 cells.
With `CCc1nc2c(C(=O)Nc3cccc(Cl)c3C)cc(NC(=O)c3ccccc3C(F)(F)F)cc2o1` [Example 54, N-(3-Chloro-2-methylphenyl)-2-ethyl-6-({[2-(trifluoromethyl)phenyl]carbonyl}amino)-1,3-benzoxazole-4-carboxamide], the values for the IC50 on human mPGES-1 and in the test with A549 cells were 23.2 nM and 225 nM, respectively.
Taken in the same sequence, the figures for `Cc1c(Cl)cccc1NC(=O)c1cc(NC(=O)c2cc(Cl)ccc2Cl)cc2[nH]c(NCC(C)(C)O)nc12` [Example 191, N-(3-Chloro-2-methylphenyl)-6-{[(2,5-dichlorophenyl)carbonyl]amino}-2-[(2-hydroxy-2-methylpropyl)amino]-1H-benzimidazole-4-carboxamide hydrochloride] were 3.9 nM and 49.5 nM.
In the case of `CCNc1nc2c(C(=O)Nc3cccc(Cl)c3C)cc(NC(=O)c3ccccc3C(F)(F)F)cc2[nH]1` [Example 139, N-(3-Chloro-2-methylphenyl)-2-(ethylamino)-6-({[2-(trifluoromethyl)phenyl]carbonyl}amino)-1H-benzimidazole-4-carboxamide hydrochloride], the IC50 at human mPGES-1 is 1.9 nM; in the test on A549 cells, 72.8 nM.
